Measurements published in patent US4716238A, “Chromene derivatives useful as insecticides” (Alkaloida Vegyeszeti Gyar, priority 1983, dated 1987).
Like-named read-outs stand apart in the source and are kept apart here.

Tests used:
insects = conditions: prior art; cited from earlier work
cabbage butterfly = assay: Cabbage butterfly test (sprayed cabbage seedlings, II. stage larvae); format: in vivo; conditions: Pieris brassicae, 50 EC composition; for mortality at 0.01 % / survival at 0.01 %: concentration 0.01%; for mortality at 0.01 % / mortality at 0.1 %: read-out: Killing rate of larvae; for mortality at 0.1 % / survival at 0.1 %: concentration 0.1%
Procedure: cabbage butterfly (Pieris brassicae)
From the 50 EC of the test compound a dilution series is prepared with water and the host seedlings (cabbage) are sprayed with this composition until the spray runs down. The spray is allowed to dry whereupon 20 young larvae of the II. stage are placed on each treated plant and the seedlings are kept under so-called "long-day" illumination (18 hours of illumination and 6 hours of darkness). The nibbled plants are replaced by similarly sprayed plants if necessary. The killing rate of the insects, the growth rate of the larvae and the morphological deformations of the surviving nymphs and adults are registered.
In the 50 EC compositions P1 and test compound 1 are used in a concentration of 0.01%, and the other active ingredients in a concentration of 0.1%.

domestic fly = assay: Domestic fly test (larvae on treated nutrient medium); format: in vivo; conditions: Musca domestica
Procedure: domestic fly (Musca domestica)
The fly larvae are grown on a nutrient medium of the following composition: 2 ml of milk; 2 ml of water; 2 g of wheat bran; 0.1 ml of saturated alcoholic nipagin solution.
The nutrient medium is filled into cylindrical glass vials (30×100 mm) and 25 fly larvae are raised in each vial. The test compound is dissolved in milk; the end concentration (related to milk) amounts to 0.1% which corresponds to 0.05% (related to the total nutrient medium). The solution of the active ingredient is admixed with the nutrient medium whereupon […] of domestic fly larvae of the I. stage are placed into each vial and the vials are closed with a hard cotton-wool stopper. The nymphs emerging from the larvae are collected in each vial, counted and kept in a petri dish (diameter 25 mm) until flies hatch from the nymphs. The hatched flies are counted.

mustard beetle = assay: Mustard beetle test; format: in vivo; conditions: Phaedon cochleariae; concentration 1%; control 100%; read-out: Survival of adults
Procedure: Two weeks old mustard seedlings are sprayed with a solution of 0.1 g of the test compound, 0.5 ml of dimethyl sulfoxide, and 10 μl of 50 EC composition in 10 ml of water. After the spray is dried, 20 mustard larvae of the II. stage are placed on each plant. The sprayed plants are changed every second day. The evaluation is based on the number of imagos hatching from the nymphs.

[1] = test system: Caenorhabditis elegans adult nematodes; assay: Nematocidal effect on Caenorhabditis elegans adult nematodes; format: in vivo; conditions: for Size of descendant population: control normal; for mortality at 200 µg/mL / mortality at 400 µg/mL: Caenorhabditis elegans, read-out: Lethality
Procedure: Caenorhabditis elegans 0.5 ml of the acetonous solution of the test compound is applied onto a NGM agar plate free from bacteria in a Petri dish. After the acetone was dried 25-30 young adults are placed on the plate. After 24 hours the surviving and killed […] are counted.

cotton bug = assay: Cotton bug test (topical application on larvae of II. stage); format: in vivo, Dysdercus fasciatus
Procedure: cotton bug (Dysdercus fasciatus) A dilution series is prepared from the test compound with acetone, and 0.2 μl of each dilution is topically applied onto the back part of larvae of the II. stage of growth with the aid of a Hamiltion syringe. The active ingredient is absorbed through the cuticula. The animals are kept in a large glass and fed with cotton grains and water. After adult shedding the surviving insects are observed for eventual adultoid symptoms, the egg-reproduction and the development of the ovules is evaluated too. (Remark: in the cotton bug test 50 insects are used). In each Table the control value are disclosed too.

Compound	survival at 0.1 % (domestic fly; read-out: Survival, adult) [%]	survival at 0.1 % (domestic fly; read-out: Survival, nymph) [%]	mortality at 0.1 % (cabbage butterfly) [%]	survival at 0.1 % (cabbage butterfly; read-out: Survival, adult) [%]	survival at 0.1 % (cabbage butterfly; read-out: Survival, nymph) [%]	Size of descendant population ([1]; 200 μg/ml)	Size of descendant population ([1]; 400 μg/ml)	also measured
COc1cc2c(cc1OC(C)C)OC(C)(C)C=C2 [6-methoxy-7-isopropoxy-2,2-dimethyl-chromene]	–	–	–	–	–	–	–	activity relative to natural P1 and P2 (insects): considerably more active than natural P1 and P2
CCCOc1ccc2c(c1)OC(C)(C)C=C2 [Compound 1]	–	–	–	–	–	–	–	mortality at 0.01 % (cabbage butterfly): 52%; survival at 0.01 % (cabbage butterfly; read-out: Survival, adult): 39%; survival at 0.01 % (cabbage butterfly; read-out: Survival, nymph): 48%
CC(C)COc1ccc2c(c1)OC(C)(C)C=C2 [Compound 3]	28.2	100	–	–	–	–	–	–
CCOc1cc(C)c2c(c1)OC(C)(C)C=C2 [Compound 17]	14.8	40	81	19	19	–	–	–
Cc1cc(OC(C)C)cc2c1C=CC(C)(C)O2 [Compound 19]	27.6	50.9	–	–	–	–	–	–
CCC(C)Oc1cc(C)c2c(c1)OC(C)(C)C=C2 (centres unmarked) [Compound 20]	12.5	25.4	11	14	19	–	–	–
Cc1cc(OCC(C)C)cc2c1C=CC(C)(C)O2 [Compound 21]	25.5	45.7	100	–	–	–	–	survival at 1 % (mustard beetle): 27%
Cc1cc(OC2CCCC2)cc2c1C=CC(C)(C)O2 [Compound 22]	31.8	52.7	100	–	–	–	–	–
C#CCOc1cc(C)c2c(c1)OC(C)(C)C=C2 [Compound 30]	10.6	50.9	83	17	17	some descendants	no descendants	Remark ([1]; 200 μg/ml): paralysis; Remark ([1]; 400 μg/ml): paralysis; mortality at 200 µg/mL ([1]; 24 h): 20%; mortality at 400 µg/mL ([1]; 24 h): 30%
C=CCOc1cc2c(cc1OCC=C)OC(C)(C)C=C2 [Compound 58]	–	–	–	–	–	some descendants	no descendants	mortality at 200 µg/mL ([1]; 24 h): 40%; mortality at 400 µg/mL ([1]; 24 h): 90%
CC(C)=CCOc1cc2c(cc1OCC=C(C)C)OC(C)(C)C=C2 [Compound 60]	–	–	–	–	–	–	–	LD50 (cotton bug): 0.6 μg/insect
CCC(C)Oc1cc2c(cc1OC)C=CC(C)(C)O2 (centres unmarked) [Compound 66]	–	–	–	–	–	–	–	AJH effect (cotton bug): 0.1 μg/insect; LD50 (cotton bug): 0.4 μg/insect
COc1cc2c(cc1OCC(C)C)OC(C)(C)C=C2 [Compound 67]	–	–	–	–	–	–	–	LD50 (cotton bug): 0.4 μg/insect
CCOc1ccc2c(c1OC)OC(C)(C)C=C2 [Compound 87]	4.2	5.4	76	24	24	reduced	no descendants	mortality at 200 µg/mL ([1]; 24 h): 40%; mortality at 400 µg/mL ([1]; 24 h): 100%
CCCOc1ccc2c(c1OC)OC(C)(C)C=C2 [Compound 88, 7-n-propoxy-8-methoxy-2,2-dimethyl-2H-chromene]	0	12.7	100	–	–	–	–	survival at 1 % (mustard beetle): 45%
CCC(C)Oc1ccc2c(c1OC)OC(C)(C)C=C2 (centres unmarked) [Compound 89, 7-sec.butoxy-8-methoxy-2,2-dimethyl-2H-chromene]	–	–	100	–	–	reduced	reduced	mortality at 200 µg/mL ([1]; 24 h): 25%; mortality at 400 µg/mL ([1]; 24 h): 85%
COc1c(OC(C)C)ccc2c1OC(C)(C)C=C2 [Compound 90, 7-isopropoxy-8-methoxy-2,2-dimethyl-2H-chromene]	0	12	64	32	36	reduced	reduced	mortality at 200 µg/mL ([1]; 24 h): 60%; mortality at 400 µg/mL ([1]; 24 h): 73%
COc1c(OCC(C)C)ccc2c1OC(C)(C)C=C2 [Compound 91, 7-isobutoxy-8-methoxy-2,2-dimethyl-2H-chromene]	–	–	93	7	7	–	–	–
CCCOc1cc(OC)c2c(c1)OC(C)(C)C=C2 [Compound 107]	6.4	9.1	88	12	12	–	–	–
COc1cc(OC(C)C)cc2c1C=CC(C)(C)O2 [Compound 108]	–	–	87	9	13	–	–	–
CCC(C)Oc1cc(OC)c2c(c1)OC(C)(C)C=C2 (centres unmarked) [Compound 109]	–	–	100	–	–	–	–	–
COc1cc(OCC(C)C)cc2c1C=CC(C)(C)O2 [Compound 110, 5-methoxy-7-isobutoxy-2,2-dimethyl-2H-chromene]	0	0	100	–	–	–	–	–
COc1ccc2c(c1)OC(C)(C)C=C2 [Compound P1, reference compound]	–	–	–	–	–	reduced	no descendants	mortality at 200 µg/mL ([1]; 200 μg/ml, 24 hours): 44%; mortality at 400 µg/mL ([1]; 400 μg/ml, 24 hours): 98%; survival at 0.1 % (domestic fly; 0.1% related to milk (0.05% of total nutrient medium), control 100%, read-out: Survival, adult): 33.3%; survival at 0.1 % (domestic fly; 0.1% related to milk (0.05% of total nutrient medium), control 100%, read-out: Survival, nymph): 100%; mortality at 0.01 % (cabbage butterfly): 41%; survival at 0.01 % (cabbage butterfly; read-out: Survival, adult): 50%; survival at 0.01 % (cabbage butterfly; read-out: Survival, nymph): 59%
COc1cc2c(cc1OC)OC(C)(C)C=C2 [Compound P2, reference compound]	–	–	–	–	–	no descendants	no descendants	mortality at 200 µg/mL ([1]; 200 μg/ml, 24 hours): 100%; mortality at 400 µg/mL ([1]; 400 μg/ml, 24 hours): 100%; AJH effect (cotton bug): 1 μg/insect; LD50 (cotton bug): 0.6 μg/insect; Sterilizing effect (cotton bug): 10 μg/insect
CCOc1cc2c(cc1OC)C=CC(C)(C)O2 [Compound P3, 6-methoxy-7-ethoxy-2,2-dimethyl-2H-chromene, reference compound]	–	–	–	–	–	some descendants	no descendants	mortality at 200 µg/mL ([1]; 24 h): 70%; mortality at 400 µg/mL ([1]; 24 h): 90%; activity relative to natural P1 and P2 (insects): considerably more active than natural P1 and P2
